# Reference: US20180339963A1, “ANTICONVULSANT CARBAMATE DERIVATIVES” (Yissum Research Development Company of the Hebrew …, priority 2017, published 2018)
# Where two headings read alike, the source gives them in different places. Marks after values point to notes of the source that are not given here.
# Experiments:
# in vivo [1] = conditions: male, CF no. 1 albino, mouse, ip
# [2] = system: pentylenetetrazol-induced seizure (scMet); experiment: Subcutaneous metrazol seizure test (scMet) in mice; conditions: Mus musculus, ip, read-out: scMet-ED50
# hCA II = target: T1, hCA II (Homo sapiens, UniProt P00918); experiment: Stopped flow CO2 hydrase assay, hCA II; type: biochemical; conditions: mean from 3 assays, read-out: K1, hCA II
# T1 construct: made in house
# Description: (§1) An Applied Photophysics stopped-flow instrument has been used for assaying the CA catalysed CO2 hydration activity. Phenol red (at a concentration of 0.2 mM) has been used as indicator, working at the absorbance maximum of 557 nm, with 20 mM Hepes (pH 7.5) as buffer, and 20 mM Na2SO4 (for maintaining constant the ionic strength), following the initial rates of the CA-catalyzed CO2 hydration reaction for a period of 10-100 s. The CO2 concentrations ranged from 1.7 to 17 mM for the determination of the kinetic parameters and inhibition constants. […] The uncatalyzed rates were determined in the same manner and subtracted from the total observed rates. Stock solutions of inhibitor (0.1 mM) were prepared in distilled-deionized water and dilutions up to 0.01 nM were done thereafter with the assay buffer. […] The inhibition constants were obtained by non-linear least-squares methods using PRISM 3 and the Cheng-Prusoff equation, as reported earlier and represent the mean from at least three different determinations. All CA isofoms were recombinant ones obtained in-house.
# SWV mice = experiment: Teratogenicity in the SWV mouse model; type: in vivo; conditions: for No. of fetuses with NTDs / No. of implants / No. of live fetuses / No. of resorptions / Fetal weight mean ± SD: day 8.5 of gestation; for Fetal weight mean ± SD: in g (unit assumed); for No. of live fetuses, figure in parentheses / No. of resorptions, figure in parentheses: share of implants; for No. of fetuses with NTDs, figure in parentheses: share of live fetuses
# Description: The teratogenic properties of the newly designed compounds (1-10) were evaluated in the highly inbred SWV mice strain known for its high susceptibility to VPA-induced neural tube defects (NTDs). Two month old nulligravid females, were mated overnight with males and examined for the presence of vaginal plugs the following morning, and the onset of gestation was considered to be 10 p.m. of the previous night, the midpoint of the dark cycle. At day 8.5 of gestation, each dam received a single i.p. injection of the test compounds in an equimolar dose of 0.9 or 1.8 mmol/kg and the control dams were injected with vehicle (25% water solution of Cremophore EL, Fluka Biochemica Germany). The volume of injection was 10 μL/g of body weight. […] At gestation day […], the dams were euthanized by carbon dioxide asphyxiation followed by cervical dislocation. After the opening the uterus, the location of all viable fetuses and resorption sites were recorded, and the fetuses were examined for the presence of exencephaly or other gross congenital abnormalities. The teratogenicity data (implantations, resorptions and NTDs) were evaluated for significant differences between the control and treated groups by analyzing the contingency table with Fisher's exact test. Statistical analysis was conducted using GraphPad InStat (version 3.06; GraphPad Software, San Diego, Calif., USA), and the results of all tests were considered to be statistically significant when the p-value was less than 0.05
# [3] = system: pentylenetetrazol-induced seizure (scMet); experiment: Subcutaneous metrazol seizure test (scMet) in rats; conditions: for scMet ED50: rats, p.o.
# [4] = system: maximal electroshock seizure (MES); experiment: Maximal electroshock seizure (MES) test in rats; conditions: for ED50: Rattus norvegicus, po, read-out: MES-ED50, rats, p.o.
# [5] = system: maximal electroshock seizure (MES); experiment: Maximal electroshock seizure (MES) test in mice; conditions: for responders at 30 mg/kg / responders at 100 mg/kg / responders at 300 mg/kg / ED50: Mus musculus, ip; for responders at 30 mg/kg / responders at 100 mg/kg / responders at 300 mg/kg: read-out: MES, number of mice protected/number of mice tested; for ED50: read-out: MES-ED50, mice, i.p.
# 6 Hz psychomotor seizure = 6 Hz psychomotor seizure test in mice; conditions: for responders at 30 mg/kg / responders at 100 mg/kg / responders at 300 mg/kg / ED50: Mus musculus, ip; for responders at 30 mg/kg / responders at 100 mg/kg / responders at 300 mg/kg: read-out: 6 Hz, number of mice protected/number of mice tested; for ED50: read-out: 6 Hz-ED50, mice, i.p., 32 mA
# mice = experiment: Neurotoxicity (minimal motor impairment, rotarod) in mice; conditions: mice i.p.
# hCA VII = target: T2, hCA VII (Homo sapiens, UniProt P43166); experiment: Stopped flow CO2 hydrase assay, hCA VII; type: biochemical; conditions: mean from 3 assays, read-out: K1, hCA VII
# T2 construct: made in house
# Description: as §1
# hCA I = target: T3, hCA I (Homo sapiens, UniProt P00915); experiment: Stopped flow CO2 hydrase assay, hCA I; type: biochemical; conditions: mean from 3 assays, read-out: K1, hCAI
# T3 construct: made in house
# Description: as §1
# hCA IV = target: T4, hCA IV (Homo sapiens, UniProt P22748); experiment: Stopped flow CO2 hydrase assay, hCA IV; type: biochemical; conditions: mean from 3 assays; for Ki: read-out: K1, hCA IV
# T4 construct: made in house
# Description: as §1
# in vivo [6] = conditions: male, Sprague-Dawley, rat, po
# T4 sequence (P22748 19-284): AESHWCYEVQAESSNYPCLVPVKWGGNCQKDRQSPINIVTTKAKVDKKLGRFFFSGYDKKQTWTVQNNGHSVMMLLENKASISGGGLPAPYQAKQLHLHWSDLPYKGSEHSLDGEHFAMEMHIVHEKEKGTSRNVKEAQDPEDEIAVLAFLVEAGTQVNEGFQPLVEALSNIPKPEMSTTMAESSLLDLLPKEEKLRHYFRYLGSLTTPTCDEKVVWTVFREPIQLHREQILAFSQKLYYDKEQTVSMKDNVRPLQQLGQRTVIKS
# T3 sequence (P00915 whole entry): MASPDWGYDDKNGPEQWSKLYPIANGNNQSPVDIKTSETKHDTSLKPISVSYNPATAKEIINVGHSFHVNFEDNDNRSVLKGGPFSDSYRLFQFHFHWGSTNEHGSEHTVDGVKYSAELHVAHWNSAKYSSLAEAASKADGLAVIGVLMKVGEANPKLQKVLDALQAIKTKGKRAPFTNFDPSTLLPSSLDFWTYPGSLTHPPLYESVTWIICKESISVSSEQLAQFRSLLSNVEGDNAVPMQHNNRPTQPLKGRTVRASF
# T2 sequence (P43166 whole entry): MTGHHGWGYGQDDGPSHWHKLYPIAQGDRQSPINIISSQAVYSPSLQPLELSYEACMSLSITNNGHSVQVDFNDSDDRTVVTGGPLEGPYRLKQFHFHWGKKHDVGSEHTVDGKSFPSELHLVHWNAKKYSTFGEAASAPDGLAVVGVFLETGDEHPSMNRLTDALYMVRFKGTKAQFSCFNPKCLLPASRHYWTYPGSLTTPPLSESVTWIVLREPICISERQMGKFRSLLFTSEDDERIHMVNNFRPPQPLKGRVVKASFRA
smiles,measurement,setting,value
"CCCC(COC(=O)Nc1ccc(S(N)(=O)=O)cc1)C(C)CC (centres unmarked) [Compound 1, 3-methyl-2-propylpentyl (4-sulfamoylphenyl)carbamate]",melting point,,151 to 152 °C
same,TD50,in vivo [1],> 500 mg/kg
same,ED50,[2],> 300 mg/kg
same,Ki,hCA II,5.7 nM
same,induction of neural tube defects relative to anticonvulsant effective dose (in words),SWV mice,induced neural tube defects only at doses markedly exceeding their effective dose
same,No. of fetuses with NTDs,SWV mice; single i.p. 0.9 mmol/kg,1
same,No. of implants,SWV mice; single i.p. 0.9 mmol/kg,126
same,No. of live fetuses,SWV mice; single i.p. 0.9 mmol/kg,94
same,No. of resorptions,SWV mice; single i.p. 0.9 mmol/kg,32
same,Fetal weight mean ± SD,SWV mice; single i.p. 0.9 mmol/kg,0.88 ± 0.03
same,"No. of live fetuses, figure in parentheses",SWV mice; single i.p. 0.9 mmol/kg,74.6%
same,"No. of resorptions, figure in parentheses",SWV mice; single i.p. 0.9 mmol/kg,25.4%
same,"No. of fetuses with NTDs, figure in parentheses",SWV mice; single i.p. 0.9 mmol/kg,(1.1)
same,No. of fetuses with NTDs,SWV mice; single i.p. 1.8 mmol/kg,7
same,No. of implants,SWV mice; single i.p. 1.8 mmol/kg,109
same,No. of live fetuses,SWV mice; single i.p. 1.8 mmol/kg,50
same,No. of resorptions,SWV mice; single i.p. 1.8 mmol/kg,59
same,Fetal weight mean ± SD,SWV mice; single i.p. 1.8 mmol/kg,0.88 ± 0.06
same,"No. of live fetuses, figure in parentheses",SWV mice; single i.p. 1.8 mmol/kg,45.9%
same,"No. of resorptions, figure in parentheses",SWV mice; single i.p. 1.8 mmol/kg,54.1%
same,"No. of fetuses with NTDs, figure in parentheses",SWV mice; single i.p. 1.8 mmol/kg,(14.0)*
same,scMet ED50,[3],inactive
same,ED50,[4],36 mg/kg
same,responders at 30 mg/kg,[5]; 0.5 h,0%
same,responders at 100 mg/kg,[5]; 0.5 h,0%
same,responders at 300 mg/kg,[5]; 0.5 h,0%
same,responders at 30 mg/kg,[5]; 2 h,0%
same,responders at 100 mg/kg,[5]; 2 h,75%
same,responders at 300 mg/kg,[5]; 2 h,100%
same,ED50,[5],136 mg/kg
same,MES-ED50,"[5]; mice, i.p.",236 mg/kg
same,responders at 30 mg/kg,6 Hz psychomotor seizure; 0.5 h,25%
same,responders at 100 mg/kg,6 Hz psychomotor seizure; 0.5 h,25%
same,responders at 300 mg/kg,6 Hz psychomotor seizure; 0.5 h,0%
same,responders at 30 mg/kg,6 Hz psychomotor seizure; 2 h,0%
same,responders at 100 mg/kg,6 Hz psychomotor seizure; 2 h,25%
same,responders at 300 mg/kg,6 Hz psychomotor seizure; 2 h,75%
same,ED50,6 Hz psychomotor seizure,75 mg/kg
same,6 Hz-ED50,"6 Hz psychomotor seizure; mice, i.p., 32 mA",74 mg/kg
same,"Tox (motor impairment or sedation), number of animals affected/number of animals tested","mice; 30 mg/kg, 0.5 h",0/8
same,"Tox (motor impairment or sedation), number of animals affected/number of animals tested","mice; 30 mg/kg, 2.0 h",0/8
same,"Tox (motor impairment or sedation), number of animals affected/number of animals tested","mice; 100 mg/kg, 0.5 h",0/8
same,"Tox (motor impairment or sedation), number of animals affected/number of animals tested","mice; 100 mg/kg, 2.0 h",0/8
same,"Tox (motor impairment or sedation), number of animals affected/number of animals tested","mice; 300 mg/kg, 0.5 h",0/8
same,"Tox (motor impairment or sedation), number of animals affected/number of animals tested","mice; 300 mg/kg, 2.0 h",0/8
same,Ki,hCA VII,865 nM
same,Ki,hCA I,89 nM
same,Ki,hCA IV,> 10000 nM
"CCC(C)C(C)OC(=O)Nc1ccc(S(N)(=O)=O)cc1 (centres unmarked) [Compound 9, 3-methylpentan-2-yl (4-sulfamoylphenyl)carbamate]",TD50,in vivo [6],> 500 mg/kg
same,melting point,,179 to 180 °C
same,TD50,in vivo [1],> 600 mg/kg
same,ED50,[2],369 mg/kg
same,Ki,hCA II,5.4 nM
same,induction of neural tube defects relative to anticonvulsant effective dose (in words),SWV mice,induced neural tube defects only at doses markedly exceeding their effective dose
same,No. of fetuses with NTDs,SWV mice; single i.p. 0.9 mmol/kg,3
same,No. of implants,SWV mice; single i.p. 0.9 mmol/kg,126
same,No. of live fetuses,SWV mice; single i.p. 0.9 mmol/kg,109
same,No. of resorptions,SWV mice; single i.p. 0.9 mmol/kg,17
same,Fetal weight mean ± SD,SWV mice; single i.p. 0.9 mmol/kg,0.90 ± 0.07
same,"No. of live fetuses, figure in parentheses",SWV mice; single i.p. 0.9 mmol/kg,86.5%
same,"No. of resorptions, figure in parentheses",SWV mice; single i.p. 0.9 mmol/kg,13.5%
same,"No. of fetuses with NTDs, figure in parentheses",SWV mice; single i.p. 0.9 mmol/kg,(2.8)
same,No. of fetuses with NTDs,SWV mice; single i.p. 1.8 mmol/kg,9
same,No. of implants,SWV mice; single i.p. 1.8 mmol/kg,107
same,No. of live fetuses,SWV mice; single i.p. 1.8 mmol/kg,49
same,No. of resorptions,SWV mice; single i.p. 1.8 mmol/kg,58
same,Fetal weight mean ± SD,SWV mice; single i.p. 1.8 mmol/kg,0.89 ± 0.08
same,"No. of live fetuses, figure in parentheses",SWV mice; single i.p. 1.8 mmol/kg,45.8%
same,"No. of resorptions, figure in parentheses",SWV mice; single i.p. 1.8 mmol/kg,54.2%
same,"No. of fetuses with NTDs, figure in parentheses",SWV mice; single i.p. 1.8 mmol/kg,(18.4)*
same,ED50,"[3]; Rattus norvegicus, po, read-out: scMet ED50",> 250 mg/kg
same,scMet ED50,[3],inactive
same,ED50,[4],23 mg/kg
same,MES-ED50,"[4]; rats, p.o.",28 mg/kg
same,responders at 30 mg/kg,[5]; 0.5 h,75%
same,responders at 100 mg/kg,[5]; 0.5 h,75%
same,responders at 300 mg/kg,[5]; 0.5 h,100%
same,responders at 30 mg/kg,[5]; 2 h,0%
same,responders at 100 mg/kg,[5]; 2 h,100%
same,responders at 300 mg/kg,[5]; 2 h,100%
same,ED50,[5],31 mg/kg
same,responders at 30 mg/kg,6 Hz psychomotor seizure; 0.5 h,50%
same,responders at 100 mg/kg,6 Hz psychomotor seizure; 0.5 h,50%
same,responders at 300 mg/kg,6 Hz psychomotor seizure; 0.5 h,100%
same,responders at 30 mg/kg,6 Hz psychomotor seizure; 2 h,0%
same,responders at 100 mg/kg,6 Hz psychomotor seizure; 2 h,0%
same,responders at 300 mg/kg,6 Hz psychomotor seizure; 2 h,25%
same,ED50,6 Hz psychomotor seizure,53 mg/kg
same,"Tox (motor impairment or sedation), number of animals affected/number of animals tested","mice; 30 mg/kg, 0.5 h",0/8
same,"Tox (motor impairment or sedation), number of animals affected/number of animals tested","mice; 30 mg/kg, 2.0 h",0/8
same,"Tox (motor impairment or sedation), number of animals affected/number of animals tested","mice; 100 mg/kg, 0.5 h",0/8
same,"Tox (motor impairment or sedation), number of animals affected/number of animals tested","mice; 100 mg/kg, 2.0 h",0/8
same,"Tox (motor impairment or sedation), number of animals affected/number of animals tested","mice; 300 mg/kg, 0.5 h",0/8
same,"Tox (motor impairment or sedation), number of animals affected/number of animals tested","mice; 300 mg/kg, 2.0 h",0/8
same,Ki,hCA VII,35.5 nM
same,Ki,hCA I,72.9 nM
same,"K1, hCA IV",hCA IV,medium potency inhibitors
same,Ki,hCA IV,183 nM
"CCC(C)OC(=O)Nc1ccc(S(N)(=O)=O)cc1 (centres unmarked) [Compound 11, sec-butyl(4-sulfamoylphenyl)carbamate]",melting point,,190 to 191 °C
same,ED50,[4],25 mg/kg
same,ED50,[5],75 mg/kg
